Assay results: US20050118664A1, “Fluorogenic protease substrates” (priority 2002, published 2005)
Where a SMILES comes first, the peptide text is derived from it. The star is where a group is joined. X1 = CN(C)c1ccc2c(-c3cc(NC(=O)C*)ccc3C(=O)[O-])c3ccc(=[N+](C)C)cc-3oc2c1

How the values were obtained:
PfSUB-1 [1] = molecular target: T1, PfSUB-1 (Plasmodium falciparum, UniProt O61142); experiment: Multi-well fluorescence assay of PfSUB-1 activity with or without inhibitor; format: biochemical
T1 construct: made in house; host or cells: baculovirus/insect cell system
Description: Purified recombinant PfSUB-1 at a range of concentrations in digestion buffer was dispensed into 50 μl aliquots in wells of white 96-well microtitre plates (FluoroNunc, NUNC). […] Plates were sealed and incubated at 37° C. for 18 h before being read on a Perkin Elmer LS-50B Luminescence spectrometer fitted with a LS50B WPR multi-plate reader accessory. Measurements were performed at an excitation wavelength of 552 nm, slit width 4 nm, and an emission wavelength of 580 nm, slit width 2.5 nm. Data collection was managed using Perkin Elmer FL WinLab software.

PfSUB-1 [2] = molecular target: T1, PfSUB-1; conditions: from reference [4]; cited from earlier work
PfSUB-1 [3] = molecular target: T1, PfSUB-1; experiment: Protease digestion of fluorogenic substrate with recombinant PfSUB-1, fluorescence readout; format: biochemical
Description: (§1) All dye concentrations were determined from the absorption at 528 nm, with ε 52,000 M^−1cm^−1 [5]. Solutions of pepF1-R and its isomer derived from 5-IATR were prepared at ˜4 μM by dilution from stock DMSO solutions into digestion buffer (20 mM Tris, 50 mM NaCl, 12 mM CaCl2, 0.05% NP-40 (w/v), pH 7.6). It was necessary to include NP-40 detergent (Boehringer Mannheim) in all buffers containing the labelled peptides to avoid non-specific adsorption to glass and plasticware. Portions (4 ml) of each solution were treated with an aliquot of pronase (16 μl of 1 mg ml^−1 in the same buffer) and incubated at room temperature for 30 min. Absorbance spectra of these solutions and of the corresponding labelled peptides prior to pronase treatment were recorded (Beckman DU640 spectrophotometer).
(§2) For protease digestion experiments, pepF1-R was diluted directly from DMSO stocks into digestion buffer (20 mM Tris-HCl pH 7.6, 50 mM NaCl, 12 mM CaCl2, ±0.05% w/v Nonidet P40). The DMSO concentration in digestion experiments was maintained below 1% (v/v).
A sample of pepF1-R digested with PfSUB-1 was subjected to RP-HPLC-fractionation (Vydac 4.6 mm×25 cm C18 reversed-phase column, eluted at 1 ml min^−1 with a 4.5-58.5% (v/v) gradient of acetonitrile in 0.1% TFA). In addition to a small peak at 38.5 min corresponding to residual pepF1-R, two large new fluorescent peaks of equal height were evident, with retention times of 29.6 and 34.0 min.
(§3) For these measurements, the compound was diluted 200-fold from a 230 μM stock solution in DMSO into 20 mM Tris-HCl pH 7.6. Identical spectra were obtained upon dilution into 20 mM acetate buffer, pH 5.0, or 20 mM ethanolamine pH 10.0. All buffer solutions contained 0.05% NP-40 detergent (w/v).

pronase = experiment: Protease digestion of fluorogenic substrate with pronase, fluorescence readout; format: biochemical
Description: as §1, §2, §3

PfSUB-1 [4] = molecular target: T1, PfSUB-1; conditions: recombinant PfSUB-1 and authentic parasite-derived enzyme; reference [4]; cited from earlier work

T1 sequence (O61142 220-690): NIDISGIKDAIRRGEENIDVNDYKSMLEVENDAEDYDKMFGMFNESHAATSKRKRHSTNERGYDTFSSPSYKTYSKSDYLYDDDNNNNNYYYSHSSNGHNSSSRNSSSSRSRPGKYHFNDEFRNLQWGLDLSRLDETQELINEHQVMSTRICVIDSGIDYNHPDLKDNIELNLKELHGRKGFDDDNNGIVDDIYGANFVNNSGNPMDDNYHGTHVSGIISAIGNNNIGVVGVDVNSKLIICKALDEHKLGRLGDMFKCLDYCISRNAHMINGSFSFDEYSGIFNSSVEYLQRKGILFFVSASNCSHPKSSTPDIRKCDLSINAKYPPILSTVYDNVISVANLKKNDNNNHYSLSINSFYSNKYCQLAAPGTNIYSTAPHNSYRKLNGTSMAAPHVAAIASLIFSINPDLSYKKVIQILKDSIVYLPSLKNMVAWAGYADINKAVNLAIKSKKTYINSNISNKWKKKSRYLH

For `O=C(O)c1cc[c]([Hg+])cc1.[OH-]` [pHMB, p-hydroxymercuribenzoate], the “fluorescence increase of pepF1-R with inhibitor-pre-treated PfSUB-1” value (PfSUB-1 [1]; PfSUB-1 pre-treated with 1 mM inhibitor) is given as “no fluorescence increase”, the “effect of inhibitor on PfSUB-1-dependent fluorescence increase of pepF1-R” value (PfSUB-1 [1]; multi-well assay, 0.5 μl 100 mM pHMB per 50 μl well, 30 min pre-mix, 37° C. 18 h) is given as “virtually completely ablated” and the “inhibition of PfSUB-1 (in words)” value (PfSUB-1 [2]) is given as “potent inhibitor”.
In the case of `CC[C@H](C)[C@H](NC(=O)[C@H](CC(=O)O)NC(=O)[C@@H](NC(=O)[C@H](CC(N)=O)NC(=O)[C@H](CC(=O)O)NC(=O)[C@H](C)NC(=O)[C@H](CO)NC(=O)[C@@H](NC(=O)[C@H](CSCC(=O)Nc1ccc(C(=O)[O-])c(-c2c3ccc(=[N+](C)C)cc-3oc3cc(N(C)C)ccc23)c1)NC(C)=O)C(C)C)[C@@H](C)CC)C(=O)N[C@@H](CSCC(=O)Nc1ccc(C(=O)[O-])c(-c2c3ccc(=[N+](C)C)cc-3oc3cc(N(C)C)ccc23)c1)C(=O)O` [pepF1-R] (Ac-C(X1)VSADNIDIC(X1)-OH), the “increase in fluorescence on cleavage” value (PfSUB-1 [3]; addition of recombinant PfSUB-1, 20 mM Tris-HCl pH 7.6, 0.05% NP-40, ex 552 nm, em 580 nm) is reported as “greater than 25 fold”, the “cleavage site of substrate (RP-HPLC / mass spectrometry of products)” value (PfSUB-1 [3]; digested with PfSUB-1) is reported as “cleavage at the Asp-Asn bond” and the “fluorescence change on incubation with protease (in words)” value (PfSUB-1 [3]; purified recombinant PfSUB-1, digestion buffer) is reported as “dramatic, time-dependent increase in fluorescence”. For the same molecule, the “increase in fluorescence on cleavage” value (pronase; addition of pronase, 20 mM Tris-HCl pH 7.6, 0.05% NP-40, ex 552 nm, em 580 nm) was “greater than 25 fold”, the “fluorescence change on incubation with protease (in words)” value (pronase; pronase, digestion buffer) was “dramatic, time-dependent increase in fluorescence” and the solubility was ≤ 50 µM.
For “Ac-LVSADNIDIS—OH: N-acetylated synthetic decapeptide based on the PfSUB-1 autocatalytic cleavage site (Ac-LVSADNIDIS-OH)”, the “cleavage by PfSUB-1 (in words)” value (PfSUB-1 [4]) is given as “cleaved at the Asp-Asn bond”.
